Measurements published in paper PMC8260761, “A bacteriocin-based treatment option for Staphylococcus haemolyticus biofilms” (Scientific Reports, 2021).

What was measured:
Assay in all cases: Spot-on-lawn inhibition assay
Type in all cases: cell-based
[1] = system: Staphylococcus haemolyticus strains; parameters: key to Average inhibition score: –: “−” = No inhibition; “+” = Unclear zone; “++” = zone < 1 cm; “+++” = zone ≥ 1 cm
Description: (§1) A semi-quantitative spot-on-lawn inhibitory assay was performed on 51 bacterial indicator strains (Table S1) to determine the bacteriocins inhibition spectra. Overnight cultures were diluted 1:100 in BHI soft agar and distributed on BHI agar plates. Once solidified, bacteriocins with various concentrations were applied on designated spots. The plates were incubated at appropriate temperature O/N and inhibition zones were measured the following day. To determine minimal inhibitory concentration (MIC50) of H1 against clinical S. haemolyticus isolates (Table S2), as well as strains heterologously expressing RseP (Table S4), the microtiterplate antimicrobial assay was performed as previously described[41],[79]. MIC50 was defined as the minimal bacteriocin concentration needs to inhibit the growth of a bacterial strain by at least 50%.

[2] = system: Lactobacillus curvatus; details: 5 µl at 1 mg/ml, n=3
Description: as §1

[3] = system: S. homonis; details: S. homonis LMG 3129; 5 µl at 1 mg/ml; n=3
Description: as §1

[4] = system: E. faecium; details: 5 µl at 1 mg/ml, n=3
Description: as §1

[5] = system: E. faecalis; parameters: key: –: “−” = No inhibition; “+” = Unclear zone; “++” = zone < 1 cm; “+++” = zone ≥ 1 cm; details: 5 µl at 1 mg/ml, n=3
Description: as §1

[6] = system: L. ivanovii; parameters: key: –: “−” = No inhibition; “+” = Unclear zone; “++” = zone < 1 cm; “+++” = zone ≥ 1 cm; details: L. ivanovii Li4; 5 µl at 1 mg/ml; n=3
Description: as §1

[7] = system: Enterococcus avium; parameters: key: –: “−” = No inhibition; “+” = Unclear zone; “++” = zone < 1 cm; “+++” = zone ≥ 1 cm; details: Enterococcus avium LMG 3465; 5 µl at 1 mg/ml; n=3
Description: as §1

[8] = system: L. plantarum; parameters: key: –: “−” = No inhibition; “+” = Unclear zone; “++” = zone < 1 cm; “+++” = zone ≥ 1 cm; details: L. plantarum LMG 2352; 5 µl at 1 mg/ml; n=3
Description: as §1

[9] = system: Lactococcus garvieae; parameters: key: –: “−” = No inhibition; “+” = Unclear zone; “++” = zone < 1 cm; “+++” = zone ≥ 1 cm; details: Lactococcus garvieae DCC43; 5 µl at 1 mg/ml; n=3
Description: as §1

[10] = system: Streptococcus dysgalactiae; parameters: key: “-“ = No inhibition; “+” = Unclear zone; “++” = zone < 1 cm; “+++”= zone > 1 cm; details: Streptococcus dysgalactiae 7649-3; 5 µl at 1 mg/ml; n=3
Description: as §1

[11] = system: L. sakei; parameters: key: “-“ = No inhibition; “+” = Unclear zone; “++” = zone < 1 cm; “+++”= zone > 1 cm; details: 5 µl at 1 mg/ml, n=3
Description: as §1

[12] = system: S. aureus; parameters: key: “-“ = No inhibition; “+” = Unclear zone; “++” = zone < 1 cm; “+++”= zone > 1 cm; details: 5 µl at 1 mg/ml, n=3
Description: as §1

[13] = system: Carnobacterium divergens; parameters: key: “-“ = No inhibition; “+” = Unclear zone; “++” = zone < 1 cm; “+++”= zone > 1 cm; details: Carnobacterium divergens NCDO 2306; 5 µl at 1 mg/ml; n=3
Description: as §1

[14] = system: Esherichia coli; parameters: key: “-“ = No inhibition; “+” = Unclear zone; “++” = zone < 1 cm; “+++”= zone > 1 cm; details: 5 µl at 1 mg/ml, n=3
Description: as §1

## MKFKFNPTGTIVKKLTQYEIAWFKNKHGYYPWEIPRC [K1, enterocin K1]
[1]; S. haemolyticus 4068, 5 μl at 1 mg/ml, n = 3
  Average inhibition score: –
[1]; S. haemolyticus 4069, 5 μl at 1 mg/ml, n = 3
  Average inhibition score: –
[1]; S. haemolyticus 4070, 5 μl at 1 mg/ml, n = 3
  Average inhibition score: –
[1]; S. haemolyticus 4071, 5 μl at 1 mg/ml, n = 3
  Average inhibition score: –
[1]; S. haemolyticus 4072, 5 μl at 1 mg/ml, n = 3
  Average inhibition score: –
[1]; S. haemolyticus 4073, 5 μl at 1 mg/ml, n = 3
  Average inhibition score: –
[1]; S. haemolyticus 7067_4_21, 5 μl at 1 mg/ml, n = 3
  Average inhibition score: –
[1]; S. haemolyticus 7067_4_28, 5 μl at 1 mg/ml, n = 3
  Average inhibition score: –
[1]; S. haemolyticus 7067_4_39, 5 μl at 1 mg/ml, n = 3
  Average inhibition score: –
[1]; S. haemolyticus 7067_4_48, 5 μl at 1 mg/ml, n = 3
  Average inhibition score: –
[1]; S. haemolyticus 7067_4_49, 5 μl at 1 mg/ml, n = 3
  Average inhibition score: –
[1]; S. haemolyticus 7067_4_56, 5 μl at 1 mg/ml, n = 3
  Average inhibition score: –
[1]; S. haemolyticus 7067_4_60, 5 μl at 1 mg/ml, n = 3
  Average inhibition score: ++ (“++” = zone < 1 cm)
[1]; S. haemolyticus 7067_4_66, 5 μl at 1 mg/ml, n = 3
  Average inhibition score: –
[1]; S. haemolyticus 7067_4_67, 5 μl at 1 mg/ml, n = 3
  Average inhibition score: –
[1]; S. haemolyticus 7067_4_71, 5 μl at 1 mg/ml, n = 3
  Average inhibition score: –
[1]; S. haemolyticus 7067_4_84, 5 μl at 1 mg/ml, n = 3
  Average inhibition score: –
[1]; S. haemolyticus 7068_7_63, 5 μl at 1 mg/ml, n = 3
  Average inhibition score: –
[1]; S. haemolyticus LMG 4133, 5 µl at 1 mg/ml, n=3
  Average inhibition score: +
[1]; S. haemolyticus SH01, 5 μl at 1 mg/ml, n = 3
  Average inhibition score: –
[1]; S. haemolyticus SH04, 5 μl at 1 mg/ml, n = 3
  Average inhibition score: –
[1]; S. haemolyticus SH09, 5 μl at 1 mg/ml, n = 3
  Average inhibition score: –
[1]; S. haemolyticus SH10, 5 μl at 1 mg/ml, n = 3
  Average inhibition score: +
[1]; S. haemolyticus SH14, 5 μl at 1 mg/ml, n = 3
  Average inhibition score: –
[1]; S. haemolyticus SH20, 5 μl at 1 mg/ml, n = 3
  Average inhibition score: +
[1]; S. haemolyticus SH46, 5 μl at 1 mg/ml, n = 3
  Average inhibition score: –
[1]; S. haemolyticus SH47, 5 μl at 1 mg/ml, n = 3
  Average inhibition score: +
[1]; six S. haemolyticus strains 4068–4073, 0.04, 0.2 and 1.0 mg/ml, 5 µl spotted
  Inhibition zones at three concentrations: did not result in any inhibition
[2]; L. curvatus LMG 2353
  Average inhibition score: +++ (“+++”= zone > 1 cm)
[2]; Lactobacillus curvatus LTH 1174
  Average inhibition score: +++ (“+++”= zone > 1 cm)
[3]
  Average inhibition score: ++ (“++” = zone < 1 cm)
[4]; E. faecium AL41
  Average inhibition score: ++ (“++” = zone < 1 cm)
[4]; E. faecium L50
  Average inhibition score: ++ (“++” = zone < 1 cm)
[4]; E. faecium P13
  Average inhibition score: +++ (“+++”= zone > 1 cm)
[4]; E. faecium P21
  Average inhibition score: ++ (“++” = zone < 1 cm)
[5]; E. faecalis LMG 2333
  Average inhibition score: +
[5]; E. faecalis LMG 3330
  Average inhibition score: +
[5]; E. faecalis LMG 3331
  Average inhibition score: +
[5]; E. faecalis LMG 3332
  Average inhibition score: +
[5]; E. faecalis V583
  Average inhibition score: +
[6]
  Average inhibition score: +
[7]
  Average inhibition score: +
[8]
  Average inhibition score: +
[9]
  Average inhibition score: +++ (“+++”= zone > 1 cm)
[10]
  Average inhibition score: -
[11]; L. sakei 148
  Average inhibition score: +++ (“+++”= zone > 1 cm)
[11]; L. sakei LMG 2380
  Average inhibition score: ++ (“++” = zone < 1 cm)
[12]; S. aureus ATCC14458
  Average inhibition score: -
[12]; S. aureus LMG 3263
  Average inhibition score: -
[12]; S. aureus LMG 3325
  Average inhibition score: -
[12]; S. aureus LMG 3326
  Average inhibition score: -
[12]; S. aureus LMG 3328
  Average inhibition score: -
[12]; S. aureus LMG 3329
  Average inhibition score: -
[13]
  Average inhibition score: -
[14]; E. coli TG1
  Average inhibition score: -
[14]; Esherichia coli DH5α
  Average inhibition score: -
